Our source for the IC50 and GI50 values is US20240208909A1, “SUBSTITUTED QUINOLINE DERIVATIVES HAVING SOS1 INHIBITION ACTIVITIES AND USES THEREOF” (Accutar Biotechnology Inc., priority 2022, published 2024).

The test system of assay [1] is Phospho-ERK1/2 in DLD1 cells. As to the kind of experiment: Phospho-ERK1/2 expression inhibition in DLD1 cells. Type of assay: cell-based. The settings on record: Homo sapiens, DLD-1, 4 hours, read-out: DLD1 pERK IC50. The procedure, abridged:
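DLD1 cells (15,000/well) were plated overnight, then exposed to compounds for 4 h at 37 °C. Cells were formaldehyde-fixed and methanol-permeabilized. Phospho-ERK1/2 was detected in-cell with rabbit anti-phospho-ERK1/2 and an IRDye 800CW secondary antibody, imaged on a LI-COR Odyssey.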

The target of assay [2] is SOS1/KRAS-G12D (Homo sapiens (Human), UniProt Q07889). The assay is described as follows: SOS1/KRAS-G12D binding inhibition assay (AlphaScreen). The settings on record: GST-SOS1 and 6*His KRAS-G12D, read-out: KrasG12D/SOS1 binding IC50. The procedure, abridged:
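GST-SOS1 (5 nM) pre-incubated 30 min with His6-KRAS-G12D (50 nM) in HEPES pH 7.4, NaCl, DTT, MgCl2, Tween-20, BSA; compound in 2% DMSO then added for 30 min at 4° C. GSH donor and Ni-NTA acceptor AlphaScreen beads, 2 h at 4° C; background-corrected % inhibition versus DMSO, IC50 by variable-slope nonlinear regression.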
Background: Bead proximity is the source of the signal in Alpha formats.

Assay [3] concerns K562 cells. As to the kind of experiment: Cell growth inhibition of K562 cells (CellTiter-Glo). Type of assay: cell-based. The settings on record: Homo sapiens, 120 h, 5 days. A general note: Cellular ATP, detected with luciferase, serves as a proxy for viable cell number.

Sequence of SOS1/KRAS-G12D (Q07889 564-1049 limits assumed): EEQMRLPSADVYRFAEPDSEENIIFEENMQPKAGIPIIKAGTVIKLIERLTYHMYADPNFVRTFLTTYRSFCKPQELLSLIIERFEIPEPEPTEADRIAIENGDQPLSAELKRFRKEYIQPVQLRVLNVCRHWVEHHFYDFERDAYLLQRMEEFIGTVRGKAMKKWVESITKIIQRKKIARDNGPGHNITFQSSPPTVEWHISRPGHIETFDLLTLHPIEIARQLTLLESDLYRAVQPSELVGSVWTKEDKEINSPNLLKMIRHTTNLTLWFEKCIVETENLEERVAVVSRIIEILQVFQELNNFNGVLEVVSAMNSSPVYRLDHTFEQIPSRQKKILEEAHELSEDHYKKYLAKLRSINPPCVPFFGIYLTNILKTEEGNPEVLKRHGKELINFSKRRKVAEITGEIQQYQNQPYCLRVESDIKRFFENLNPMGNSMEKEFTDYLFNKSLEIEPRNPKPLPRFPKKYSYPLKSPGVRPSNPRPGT

Usually GI50 stands for the concentration giving 50% growth inhibition. A low value points to more potent growth inhibition. For `C[C@@H](Nc1ccnc2ccc(C3CCNCC3)cc12)c1cccc(C(F)F)c1F` [Compound 10, (R)-N-(1-(3-(difluoromethyl)-2-fluorophenyl)ethyl)-6-(piperidin-4-yl)quinolin-4-amine], the IC50 is greater than 500 nM in assay [1] and 10 to 100 nM in assay [2]. The same compound showed a GI50 in assay [3] of 100 to 500 nM.

Turning to `CC(C)C(=O)N1CCN(c2ccc3nccc(N[C@H](C)c4cccc(C(F)F)c4F)c3c2)CC1` [Compound 17, (R)-1-(4-(4-((1-(3-(difluoromethyl)-2-fluorophenyl)ethyl)amino)quinolin-6-yl)piperazin-1-yl)-2-methylpropan-1-one], the figures for the IC50 in assay [1] and in assay [2] were no more than 150 nM and no more than 10 nM, respectively. The same compound registered a GI50 in assay [3] of 100 to 500 nM.
